The values that follow come from patent US20110111016A1, “NON-DNA BASE-CONTAINING POLYNUCLEOTIDE COMPOSITIONS AND THEIR USE FOR THE MODULATION OF IMMUNE RESPONSES” (priority 2009, published 2011).

One data set deals with T1, human TLR8 (Homo sapiens, UniProt Q9NR97).
T1 construct: host or cells: HEK293
T1 sequence (Q9NR97 27-1041): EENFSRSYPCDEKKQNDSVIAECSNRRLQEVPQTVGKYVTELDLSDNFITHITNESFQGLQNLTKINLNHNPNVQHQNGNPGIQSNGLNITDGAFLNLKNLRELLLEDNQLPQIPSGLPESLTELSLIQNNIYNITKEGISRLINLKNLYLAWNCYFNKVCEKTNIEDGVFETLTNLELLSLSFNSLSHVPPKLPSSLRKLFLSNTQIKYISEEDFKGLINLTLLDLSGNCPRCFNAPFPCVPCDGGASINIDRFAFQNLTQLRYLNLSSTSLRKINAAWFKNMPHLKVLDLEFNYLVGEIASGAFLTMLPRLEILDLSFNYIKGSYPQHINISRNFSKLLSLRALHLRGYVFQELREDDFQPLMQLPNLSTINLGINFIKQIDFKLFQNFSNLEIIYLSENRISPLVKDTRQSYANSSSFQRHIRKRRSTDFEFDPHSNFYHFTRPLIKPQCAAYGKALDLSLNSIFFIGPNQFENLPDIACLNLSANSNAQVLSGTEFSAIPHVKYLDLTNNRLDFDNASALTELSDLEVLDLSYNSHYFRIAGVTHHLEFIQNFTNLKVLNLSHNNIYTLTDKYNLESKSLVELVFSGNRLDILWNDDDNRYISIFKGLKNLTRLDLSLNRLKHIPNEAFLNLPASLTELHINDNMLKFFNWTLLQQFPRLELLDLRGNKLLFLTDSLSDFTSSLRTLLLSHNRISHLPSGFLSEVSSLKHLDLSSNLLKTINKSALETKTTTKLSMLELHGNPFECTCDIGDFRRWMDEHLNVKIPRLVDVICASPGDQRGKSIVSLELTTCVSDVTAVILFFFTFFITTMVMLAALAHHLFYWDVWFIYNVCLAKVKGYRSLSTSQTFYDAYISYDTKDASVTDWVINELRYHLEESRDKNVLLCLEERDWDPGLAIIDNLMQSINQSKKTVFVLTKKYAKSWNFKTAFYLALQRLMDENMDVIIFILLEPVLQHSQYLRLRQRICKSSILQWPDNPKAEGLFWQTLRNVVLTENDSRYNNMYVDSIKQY
As to the kind of experiment: NF-κB activation (secreted alkaline phosphatase reporter) in HEK293 cells expressing human TLR8. The note with it: HEK293/hTLR8 cell line; polynucleotide final concentration 10 μg/mL; 16-20 hours. The class given is cell-based. The procedure:
Toll-like receptors (TLR) are known to interact with a number of natural and synthetic molecules that can function as immune adjuvants. Examples of these molecules are Poly (I:C) polynucleotides, lipopolysaccharide and CpG-containing polynucleotides. […] TLR engagement was determined by measurement of secreted alkaline phosphatase, under the control of a reporter inducible by NF-κB. Appropriate positive controls were used for each TLR. The non-DNA base-containing polynucleotides were dissolved in sterile water at a concentration of 100 μg/mL, and used at a final concentration of 10 μg/mL. HEK293 cells containing the appropriate TLR and NF-κB reporting system (InvivoGen, San Diego, Calif., USA) were placed in wells of 96 well plates (25,000-50,000 cells, in a final volume of 200 μL medium designed for the detection of NF-κB induced secreted alkaline phosphatase expression), and incubated with non-DNA base-containing polynucleotides or positive controls for 16-20 hours. TLR activating activity was determined by measurement of absorbance at 650 nm wavelength using a Coulter AD340C absorbance detector. The results shown are expressed as Optical Density (OD).

A further data set has as its target T2, human TLR9 (Homo sapiens, UniProt Q9NR96).
T2 construct: host or cells: HEK293
T2 sequence (Q9NR96 26-1032): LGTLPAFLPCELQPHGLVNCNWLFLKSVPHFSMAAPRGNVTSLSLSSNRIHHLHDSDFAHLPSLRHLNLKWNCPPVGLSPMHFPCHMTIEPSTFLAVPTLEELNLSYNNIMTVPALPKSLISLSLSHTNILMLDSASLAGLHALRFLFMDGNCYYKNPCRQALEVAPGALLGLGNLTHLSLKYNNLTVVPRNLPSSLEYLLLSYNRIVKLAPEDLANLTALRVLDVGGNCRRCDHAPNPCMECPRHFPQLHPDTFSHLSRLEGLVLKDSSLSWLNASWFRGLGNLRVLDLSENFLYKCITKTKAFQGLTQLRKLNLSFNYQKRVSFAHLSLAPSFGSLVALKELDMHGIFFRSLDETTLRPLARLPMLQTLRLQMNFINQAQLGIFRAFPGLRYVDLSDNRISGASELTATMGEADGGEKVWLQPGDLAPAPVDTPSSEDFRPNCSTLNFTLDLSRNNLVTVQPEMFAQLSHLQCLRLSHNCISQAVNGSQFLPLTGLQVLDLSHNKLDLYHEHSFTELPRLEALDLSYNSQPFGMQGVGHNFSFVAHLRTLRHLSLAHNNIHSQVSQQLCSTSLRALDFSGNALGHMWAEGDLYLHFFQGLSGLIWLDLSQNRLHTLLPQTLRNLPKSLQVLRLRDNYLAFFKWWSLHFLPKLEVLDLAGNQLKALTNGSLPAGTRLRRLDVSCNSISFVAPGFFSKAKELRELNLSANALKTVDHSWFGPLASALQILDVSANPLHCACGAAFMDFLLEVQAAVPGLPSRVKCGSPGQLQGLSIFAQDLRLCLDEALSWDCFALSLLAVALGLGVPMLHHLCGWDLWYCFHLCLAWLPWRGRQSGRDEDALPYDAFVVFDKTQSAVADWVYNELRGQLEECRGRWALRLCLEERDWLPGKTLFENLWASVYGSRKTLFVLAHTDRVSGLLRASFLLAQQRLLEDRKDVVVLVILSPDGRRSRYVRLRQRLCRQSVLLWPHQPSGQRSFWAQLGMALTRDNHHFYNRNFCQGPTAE
Put plainly: NF-κB activation (secreted alkaline phosphatase reporter) in HEK293 cells expressing human TLR9. The class given is cell-based. The following applies: HEK293/hTLR9 cell line; polynucleotide final concentration 10 μg/mL; 16-20 hours. As for the experimental part: Toll-like receptors (TLR) are known to interact with a number of natural and synthetic molecules that can function as immune adjuvants. Examples of these molecules are Poly (I:C) polynucleotides, lipopolysaccharide and CpG-containing polynucleotides. The interaction of non-DNA base-containing polynucleotides (SEQ ID NOs: 1-3) to interact with TLR and induce down-stream signaling was tested by assessing NF-κB activation in HEK293 cells expressing human TLR2, 3, 4, 5, 7, 8 and 9. TLR engagement was determined by measurement of secreted alkaline phosphatase, under the control of a reporter inducible by NF-κB. Appropriate positive controls were used for each TLR. […] HEK293 cells containing the appropriate TLR and NF-κB reporting system (InvivoGen, San Diego, Calif., USA) were placed in wells of 96 well plates (25,000-50,000 cells, in a final volume of 200 μL medium designed for the detection of NF-κB induced secreted alkaline phosphatase expression), and incubated with non-DNA base-containing polynucleotides or positive controls for 16-20 hours. TLR activating activity was determined by measurement of absorbance at 650 nm wavelength using a Coulter AD340C absorbance detector. The results shown are expressed as Optical Density (OD).

For the substance “NebGGTGNeb (DNA NGGTGN; Nebularine at both ends, sugar and linkages not given here, further chemistry not given here) [SEQ ID NO: 1, 5′-OH, 3′-OH non-DNA base-containing polynucleotide]”, the “TLR activation, Optical Density at 650 nm, hTLR8” value (from here on “TLR activation … hTLR8”) in the data set with human TLR8 came to 0.118. In addition, the “TLR activation, Optical Density at 650 nm, hTLR9” value (shortened to “TLR activation … hTLR9”) with human TLR9 came out at 0.074.
Regarding UUGTUU [SEQ ID NO: 2], the “TLR activation … hTLR8” value at human TLR8 came to 0.120. Besides, at human TLR9, the “TLR activation … hTLR9” value stood at 0.090.
As for IIGTII [SEQ ID NO: 3], at human TLR8, the “TLR activation … hTLR8” value amounted to 0.128. Besides, the “TLR activation … hTLR9” value on human TLR9 is on record as 0.083.
